In one data set the test system is CAL-148 cells. Put plainly: Resazurin-based cell viability assay, monotherapy drug screen. On the set-up: species or system human; AUC: unit not given beside the values. As to conditions: CAL-148; for AUC: area under the dose response curve, 24 h; for GRmax: drug efficacy at highest tested dose (<0 cytotoxic, 0 cytostatic, >0 partial growth inhibition). As for the experimental part: (§1) Eighteen pharmaceutical compounds were purchased from Selleckchem (Supplementary Table 2). Stock solutions were prepared using dimethyl sulfoxide (DMSO; Merck), physiological saline (sodium chloride 0.9%) or Milli-Q water, and stored at −80 °C. […] Matched concentration solvent vehicle controls were used for each drug concentration. The drug screens were performed in triplicate and repeated three (monotherapy) or two (combination therapy) times (Fig. 7).
(§2) The optimal seeding density per 96-well was determined for each cell line as previously described. The cells were seeded at a density of 4.0 × 10^3 to 7.5 × 10^3 (cell type dependent) in 96-well clear, flat-bottom microplates (Corning Life Sciences, Sigma-Aldrich) in 100 µl complete culture medium (Supplementary Table 1) and cultured for 24 h. Cell viability was determined using the resazurin assay in untreated cells at the time of plating (t = 0) and treated cells after 24 h drug treatment (Fig. 7). Percentage cell viability was calculated as 100% × (absorbance of treated cells – absorbance of background controls) / (absorbance of matched solvent vehicle controls – absorbance of background controls). The area under the curve (AUC), half-maximal inhibitory concentration (IC50), drug potency (GR50), and drug efficacy (GRmax) were determined for each compound using the GRmetrics (version 1.20.0) package in R. The monotherapy data were evaluated with the IDACombo (version 1.0.2) package in R to predict potential drug combinations (Table 1). SynergyFinder (version 3.2.10) package in R was used to identify synergistic drug combinations.
(§3) Eighteen pharmaceutical compounds were purchased from Selleckchem. […] The solubility of the compound was enhanced by pre-heating the solvent (lukewarm), if necessary. […] The stock solutions were stored at -80°C. […] Matched concentration solvent vehicle controls were used for each drug concentration. The drug screens were performed in triplicate and repeated three times for the monotherapies and twice for the combination treatments. The drug(s) and corresponding controls were plated in 96-well PCR plates (VWR) and stored at -20°C (Fig. 6). The drug plates were thawed, centrifuged (3000 rpm for 30s), and acclimatized to RT before the drugs were added to the cells. New drug plates were prepared for each drug screen.
Cell viability was measured daily (day 0 [plating day] to day 4) using 0.2 mg/ml resazurin solution prepared from resazurin sodium salt (Fisher Scientific) dissolved in sterile 1xPBS (ThermoFisher Scientific). Before use, the resazurin solution was brought to RT before 10 µl (10% of cell medium volume) was added to each 96-well and incubated for 4h at 37°C. […] The slope of the curve was used to determine the optimal seeding density, i.e., the highest seeding density with linear growth between days 1 and 3.
(§4) The cells were seeded at a density of 4.0x10^3 to 7.5x10^3 (cell type-dependent) in 96-well clear, flat-bottom microplates (Corning Life Sciences, Sigma-Aldrich) in 100 µl culture medium supplemented with 10% FBS and cultured for 24h. Cell viability was determined using the resazurin assay after 24h drug treatment (Fig. 6). Percentage cell viability was calculated as 100% × (absorbance of treated cells – absorbance of background controls) / (absorbance of matched solvent vehicle controls – absorbance of background controls). Normalized growth rate inhibition (GR) was assessed using the absorbance of untreated cells after the time of plating (t = 0). […] For combination treatment, the monotherapy data were evaluated with the IDACombo (version 1.0.2)[20] package in R to predict potential drug combinations (Table 1). SynergyFinder (version 3.2.10)[21] package in R was used to identify synergistic drug combinations.
In general terms: The colour change of resazurin is a common sign of viable cells or microbes.

A further data set deals with BT-549 cells. Described as above. As to conditions: BT-549; for AUC: area under the dose response curve, 24 h; for GRmax: drug efficacy at highest tested dose (<0 cytotoxic, 0 cytostatic, >0 partial growth inhibition). More on the design: species or system human; AUC: scale not given here. As for the experimental part: (§5) Eighteen pharmaceutical compounds were purchased from Selleckchem. […] The stock solutions were stored at -80°C. […] New drug plates were prepared for each drug screen.
(§6) To determine the optimal seeding density and ensure that the cells were in the exponential phase during the duration of the experiment (approx. 52h), each cell line (BT-549, CAL-148, HCC1806, HCC38, HCC70, MCF-10A, MCF-7, MDA-MB-436, MDA-MB-453, and MDA-MB-468) was seeded at different concentrations (1000 to 16000 cells) per 96-well, as previously described. Cell viability was measured daily (day 0 [plating day] to day 4) using 0.2 mg/ml resazurin solution prepared from resazurin sodium salt (Fisher Scientific) dissolved in sterile 1xPBS (ThermoFisher Scientific). Before use, the resazurin solution was brought to RT before 10 µl (10% of cell medium volume) was added to each 96-well and incubated for 4h at 37°C. The absorbance was measured with a 560 nm excitation filter and a 615 nm emission filter in a Wallac 1420 VICTOR2™ microplate reader (Perkin Elmer). The slope of the curve was used to determine the optimal seeding density, i.e., the highest seeding density with linear growth between days 1 and 3.

Another data set concerns HCC1806 cells. The description is as above. More on the design: species or system human; AUC: scale not given here. As to conditions: HCC1806; for AUC: area under the dose response curve, 24 h; for GRmax: drug efficacy at highest tested dose (<0 cytotoxic, 0 cytostatic, >0 partial growth inhibition). How it is done: as §5, §6
In another data set the test system is HCC38 cells. Described as above. On the set-up: species or system human; AUC: scale not given here. As to conditions: HCC38; for AUC: area under the dose response curve, 24 h; for GRmax: drug efficacy at highest tested dose (<0 cytotoxic, 0 cytostatic, >0 partial growth inhibition). How it is done:
as §5, §6

For the next data set, the system named is HCC70 cells. The data set is described as above. On the set-up: species or system human; AUC: scale not given here. The conditions noted are these: HCC70; for AUC: area under the dose response curve, 24 h; for GRmax: drug efficacy at highest tested dose (<0 cytotoxic, 0 cytostatic, >0 partial growth inhibition). As for the experimental part:
as §5, §6

A further data set has as its system MCF-10A cells. The data set is described as above. On the set-up: species or system human; AUC: scale not given here. The conditions noted are these: for AUC: area under the dose response curve, 24 h; for GRmax: drug efficacy at highest tested dose (<0 cytotoxic, 0 cytostatic, >0 partial growth inhibition). How it is done: as §5, §6
In another data set the test system is MCF-7 cells. Described as above. More on the design: species or system human; AUC: scale not given here. The conditions noted are these: MCF-7; for AUC: area under the dose response curve, 24 h; for GRmax: drug efficacy at highest tested dose (<0 cytotoxic, 0 cytostatic, >0 partial growth inhibition). As for the experimental part:
as §5, §6

Another data set concerns MDA-MB-436 cells. The data set is described as above. As to conditions: MDA-MB-436; for AUC: area under the dose response curve, 24 h; for GRmax: drug efficacy at highest tested dose (<0 cytotoxic, 0 cytostatic, >0 partial growth inhibition). More on the design: species or system human; AUC: scale not given here. How it is done:
as §5, §6

For the next data set, the system named is MDA-MB-453 cells. Described as above. As to conditions: MDA-MB-453; for AUC: area under the dose response curve, 24 h; for GRmax: drug efficacy at highest tested dose (<0 cytotoxic, 0 cytostatic, >0 partial growth inhibition). More on the design: species or system human; AUC: scale not given here. How it is done: as §5, §6
For the next data set, the system named is MDA-MB-468 cells. The data set is described as above. As to conditions: MDA-MB-468; for AUC: area under the dose response curve, 24 h; for GRmax: drug efficacy at highest tested dose (<0 cytotoxic, 0 cytostatic, >0 partial growth inhibition). On the set-up: species or system human; AUC: scale not given here. As for the experimental part: as §5, §6
In data set [1] the test system is eight TNBC cell lines (BT-549, CAL-148, HCC1806, HCC38, HCC70, MDA-MB-436, MDA-MB-453, MDA-MB-468). Put plainly: Monotherapy drug screen, mean across the TNBC cell lines. How it is done: as §1, §2, §3, §4

We go through 2 compounds from publication PMC10825133, “Repurposing proteasome inhibitors for improved treatment of triple-negative breast cancer” (Cell Death Discovery, 2024).

As for `CCCc1ccc(OCC(=O)N(Cc2nc(-c3cccnc3)no2)C(C)C)cc1` [PI-1840], the AUC in the data set on CAL-148 cells is listed as 1.0; in the data set on BT-549 cells, 0.99; in the data set on HCC1806 cells it was 1.0; with HCC38 cells it was 1.0; in the data set on HCC70 cells it was 1.0; in the data set on MCF-10A cells, 1.0. Besides, the AUC in the data set on MCF-7 cells was 1.0; with MDA-MB-436 cells, 1.0; with MDA-MB-453 cells, 1.0; in the data set with MDA-MB-468 cells, 0.98. The GRmax in the data set with CAL-148 cells came to 1.0; in the data set on BT-549 cells, 1.0; in the data set with HCC1806 cells, 0.98; in the data set with HCC38 cells, 1.0; in the data set on HCC70 cells, 1.0; in the data set on MCF-10A cells, 1.0. Moreover, the GRmax is on record as 0.97 in the data set with MCF-7 cells, 1.0 in the data set with MDA-MB-436 cells, 0.93 in the data set with MDA-MB-453 cells and 0.96 in the data set with MDA-MB-468 cells. Moreover, the “cytotoxic effect at the highest dose” value in [1] is given as “lowest cytotoxic effects”.
A word on the IC50: it is the midpoint of a concentration-inhibition curve. In the case of `O=[N+]([O-])c1ccc(S(=O)(=O)N2CCN(c3ccnc4cc(Cl)ccc34)CC2)c([N+](=O)[O-])c1` [VR-23], the AUC with CAL-148 cells is reported as 1.0; with BT-549 cells, 0.98; with HCC1806 cells, 1.0; in the data set on HCC38 cells, 1.0; with HCC70 cells, 0.98; in the data set on MCF-10A cells it was 1.0. Further, the AUC worked out at 0.98 with MCF-7 cells, 1.0 with MDA-MB-436 cells, 0.99 with MDA-MB-453 cells and 0.97 in the data set with MDA-MB-468 cells. Moreover, the GRmax with CAL-148 cells is 0.95; in the data set on BT-549 cells, 0.85; in the data set with HCC1806 cells, 0.93; in the data set with HCC38 cells it was 0.95; with HCC70 cells, 0.82; in the data set with MCF-10A cells it was 1.0. The GRmax in the data set on MCF-7 cells is reported as 0.82; in the data set on MDA-MB-436 cells, 1.0; with MDA-MB-453 cells it was 0.40; in the data set on MDA-MB-468 cells, 0.74. The IC50 in the data set with MCF-7 cells (24 h drug treatment, read-out: IC50) is 6 µM. The “cytotoxic effect at the highest dose” value in data set [1] is “lowest cytotoxic effects”.
